According to patent US5149865A, “New p-oxibenzoic acid derivatives, process for their preparation and their use as drug” (Klinge Pharma GmbH, priority 1991, dated 1992):

What was measured:
[1] = test system: cholesterol biosynthesis in rat liver homogenate; assay: Determination of the inhibition of cholesterol synthesis in rat liver homogenate (14C acetate incorporation); type: biochemical
Method: 2) Determination of the inhibition of cholesterol synthesis
3 g freshly prepared rat liver were homogenized in 6 ml ice-cooled buffer and centrifuged at 20000 * g for 20 minutes. The supernatant was separated off and used for the following determinations.
10 μl of the methanolic test substance solution was pipetted into a mixture of 110 μl supernatant and 300 μl incubation solution and incubated at 37° C. for 20 minutes. Thereafter, 10 μl of a ^14 C acetate solution was pipetted in and incubated for a further 30 minutes. Thereafter, 500 μl ethanolic KOH solution was added to the mixture, further incubated for 60 minutes at 75° C. and thereafter the reaction stopped by cooling in an ice bath. To enable a yield correction to be made for the subsequent extraction of the ^14 C cholesterol forming, ^3 H cholesterol (≈10^-3) was added by pipetting. In addition, 500 μl of an ethanolic solution of cold cholesterol was added. The cholesterol of the mixture was extracted twice with 1 ml petroleum ether, the extract concentrated by evaporating to dryness and taken up in 0.6 ml of an ethanol acetone mixture (1/1). The dissolved cholesterol was then precipitated by means of 1.4 ml of a digitonin solution (=7 mg). After 15 hours at 0° C. the precipitate was centrifuged off, dissolved with 0.5 ml methanol/glacial acetic acid (33/5) and diluted with two ml methanol. The radioactivity of the resulting cholesterol was then determined in […] scintillation liquid (Dimilume) by means of a scintillation counter.
Buffer: 6.8 g KH2 PO4, 0.6 g MgCl2, 0.37 g EDTA, 1.83 g nicotine amide, 51.35 g saccharose and 0.44 ml mercaptoethanol were dissolved in distilled water and diluted to 500 ml (PH =7.2)
Incubation solution: The following were dissolved, in each case individually:
8.6 mg […] with 1.3 ml buffer
10.2 mg NADP with 1.3 ml buffer
39.6 mg glucose-6-phosphate with 0.65 ml buffer
31.6 μl glucose-6-phosphate dehydrogenase (1000 U/0.9 ml) with 0.285 buffer
These solutions were not mixed until immediately prior to use.
^14 C-acetate: Solution: 250 μCi ^14 C-Na-acetate was dissolved by means of 1 ml distilled water, Solution 2: 512.5 mg Na-acetate was dissolved in 10 ml distilled water.
Before the test, 0.1 ml of solution 1 and 0.4 ml of solution 2 were mixed and then mixed with 2 ml distilled water.
Ethanolic KOH: 10 g were dissolved in 100 ml ethanol.
Method: R. E. Dugan et al. Archives Bioch. Biophys. 152 21, (1972)

[2] = test system: total cholesterol (TC) and triglyceride (TG) level in the rat serum; assay: Determination of the hypolipidemic effect on rats (serum total cholesterol and triglycerides after oral administration); type: in vivo, normolipemic male Wistar rats; settings: 100 mg/kg oral, three administrations over 3 days, groups of 10 male Wistar rats
Method: 1) Determination of the hypolipidemic effect on rats
The lipid-reducing effect of the test substances was examined on groups each of 10 normolipemic male Wistar rats weighing 200 to 220 g.
The tests were carried out after a 3-week retraining of the eating habits of the animals. The controlled feeding was carried out daily from 8 a.m. to 10 a.m. The test substances were administered at 11 a.m.
The test compounds were absorbed in an aqueous solution of 0.25% agar and 0.84% sodium chloride and administered orally. After three administrations over a period of 3 days blood was extracted from the animals. Cholesterol and triglycerides were determined in the serum with the aid of the "Cobas-Bio" centrifugal analyzer of Hoffmann-La Roche:
a) Cholesterol determination
CHOD-PAP method, enzymatic color test according to J. Siedel et al. (J. Clin. Chem. Clin. Biochem. 19, 838 (1981))
b) Triglyceride determination
Enzymatic cleavage of the triglycerides with the aid of special lipases with subsequent determination of the liberated glycerol according to T. O. Tiffany et al. (Clin. Chem. 20, 476 (1974))

With `CC(C)(C)c1ccc(C(O)CC(O)COc2ccc(C(=O)O)cc2)cc1` (single isomer, unassigned) [Diastereomer A, 1-(4'-tert.butylphenyl)-4-(4'-carboxyphenoxy)-butanediol-1,3] as the molecule, how does the “cholesterol biosynthesis in rat liver homogenate, % Control” value (“cholesterol biosynthesis … % Control” below) ([1]; 1*10^-4 Mole/l, 100 µM) read?
Its value is 9 % Control.

And the “cholesterol biosynthesis … % Control” value ([1]; 1*10^-5 Mole/l, 10 µM)?
The value was 36 % Control.

What about the “cholesterol biosynthesis … % Control” value ([1]; 1*10^-6 Mole/l, 1 µM) of the same molecule?
The value was 103 % Control.

What about the “cholesterol biosynthesis … % Control” value ([1]; 3*10^-4 Mole/l, 300 µM) of the same molecule?
Its value is 2 % Control.

And the “cholesterol biosynthesis … % Control” value ([1]; 3*10^-5 Mole/l, 30 µM)?
Its value is 14 % Control.

And the “cholesterol biosynthesis … % Control” value ([1]; 3*10^-6 Mole/l, 3 µM)?
Its value is 97 % Control.

What about the “cholesterol biosynthesis … % Control” value ([1]; 3*10^-7 Mole/l, 0.3 µM) of the same molecule?
The value was 122 % Control.

What about the “Percentage change of total cholesterol (TC) level in the rat serum, X ± SD” value (from here on “Percentage change of total cholesterol … X ± SD”) [2] of the same molecule?
The value was -39.1 ± 15.5 % Change.

And the “Percentage change of triglyceride (TG) level in the rat serum, X ± SD” value (from here on “Percentage change of triglyceride … X ± SD”) [2]?
The value was -26.4 ± 13.1 % Change.

`CC(C)(C)c1ccc(C(O)CC(O)COc2ccc(C(=O)O)cc2)cc1` (single isomer, unassigned) [Diastereomer B, 1-(4'-tert.butylphenyl)-4-(4'-carboxyphenoxy)-butanediol-1,3] was tested. Which “cholesterol biosynthesis … % Control” value ([1]; 1*10^-5 Mole/l, 10 µM) did it give?
The value was 42 % Control.

And the “Percentage change of total cholesterol … X ± SD” value [2]?
Its value is -66.9 ± 8.6 % Change.

What about the “Percentage change of triglyceride … X ± SD” value [2] of the same molecule?
Its value is -29.7 ± 15.5 % Change.

For `CCOC(=O)C(C)(C)Oc1ccc(Cl)cc1` [Clofibrate, reference compound], which “Percentage change of total cholesterol … X ± SD” value [2] is on record?
Its value is -14.5 + 12.0 % Change.

What about the “Percentage change of triglyceride … X ± SD” value [2] of the same molecule?
Its value is -29.2 + 19.4 % Change.
